Test results as given in ChEMBL document CHEMBL1157539, “Thousands of chemical starting points for antimalarial lead identification” (Nature, 2010).

These compounds were tested on Plasmodium falciparum (assay: GSK_TCMDC: Inhibition of Plasmodium falciparum 3D7 in whole erythrocytes, using parasite LDH activity as an index of growth.). Details: Plasmodium falciparum, 3D7.
Type: functional, organism-based

Row | SMILES | XC50 [µM]
1 | CCOc1cc(/C=N/Nc2nc3ccccc3[nH]2)ccc1OCc1ccc([N+](=O)[O-])cc1 | 0.995
2 | CCOc1c(CNCCCNc2cc(O)c3ccccc3n2)cc(I)cc1OC | 1.17
3 | CCN1CCC(N(Cc2ccc(-c3ccc(C(F)(F)F)s3)cc2)C(=O)Cn2c(CCc3cccc(F)c3F)nc(=O)c3ccccc32)CC1 | 0.932
4 | CCN(CC)CCN(Cc1ccc(-c2ccc(C(F)(F)F)cc2)cc1)C(=O)Cn1c(SCc2ccc(F)cc2)cc(=O)c2ccccc21 | 0.752
5 | CCN(CC)CCN(Cc1ccc(-c2ccc(C(F)(F)F)cc2)cc1)C(=O)Cn1c(CCc2ccc(F)cc2)nc(=O)c2sccc21 | 0.67
6 | CCN(CC(C)O)C(=O)c1ccc(-c2ccc(-c3nc4cccc(C)c4[nH]3)cc2)cc1 (stereo unspecified) | 0.84
7 | CN1CCc2cc(NS(=O)(=O)c3ccc(-c4ccc(Cl)s4)cc3)c(N3CCCCC3)cc2CC1 | 0.727
8 | Cc1nc(C)c(-c2ccc(C(=O)c3ccccc3)cc2)c(O)c1Br | 0.778
9 | O=C(CSc1ccc(Cl)cc1)NC1CCC(CN2CCC(c3c[nH]c4ccccc34)CC2)CC1 (stereo unspecified) | 0.934
10 | N#Cc1ccc(N2CCN(Cc3ccc(-c4ccc(-c5nc6cc(C(F)(F)F)ccc6[nH]5)s4)cc3)CC2)nc1 | 0.814
11 | COc1ccc(CNCc2ccc(-c3cccc(-c4nc5cccc(C)c5[nH]4)c3)cc2)cc1 | 0.13
12 | COc1ccc(N2CCc3c(-c4cccc5cnccc45)cc(C)nc32)c(C)c1 | 0.655
13 | CCCCn1c(C)c(C(=O)OCC)c2cc(OC(C)=O)c(Br)cc21 | 0.625
14 | O=C(Nc1ccc(I)cc1)N1CCc2sccc2C1CN1CCCCC1 (stereo unspecified) | 1.2
15 | NC(=O)c1cccc(C(=O)Nc2cccc(-c3ccc(-c4nc5ccccc5[nH]4)s3)c2)c1 | 0.349
16 | COc1ccc2c(-c3ccccc3)noc2c1 | 0.241
17 | CC=Cc1cc(Cc2c[nH]c(=N)[nH]c2=N)cc(CCC)c1OC | 0.783
18 | COc1ccc2ccccc2c1CCCCN1CCN(CC(c2ccc(F)cc2)N2CCC2)CC1 (stereo unspecified) | 0.759
19 | Cc1[nH]c(C)c(-c2ccc(CCc3ccc(N)cc3)cc2)c(=O)c1Cl | 0.0985
20 | CN1CCN(c2ccc(-c3nc4ccc(OCc5cc(Cl)cc(Cl)c5)c(C(N)=O)c4[nH]3)cc2)CC1 | 0.657
21 | Cc1cnc(C(=O)Nc2ccc(-c3cccc(-c4nc5ccccc5[nH]4)c3)cc2)cn1 | 0.833
22 | CCc1ccc(-n2cc(C(=O)c3cc(Br)ccc3O)cc(C#N)c2=O)cc1 | 0.797
23 | C=C[C@H]1CN(CCCCCCC)CC[C@H]1CCNc1ccnc2ccc(OC)cc12 | 0.0618
24 | O=C(COc1ccccc1)N(Cc1ccc(-c2ccc(CNC3Cc4ccccc4C3)cc2)cc1)C1CCNCC1 | 1.02

Row | SMILES | XC50 [µM]
25 | CC(=O)c1ccc(NC(=O)C2c3ccccc3C(=O)N(CC(C)C)C2c2cccs2)cc1 (stereo unspecified) | 1.32
26 | O=C(/C=C/c1ccc(Cl)c(Cl)c1)NCCCCCN1CCCC(C(=O)Nc2ccc(Cl)c(Cl)c2)C1 (stereo unspecified) | 0.785
27 | CCN(CC)CCOC(=O)c1ccc(NC(=O)c2cc(-c3ccc(C)cc3)nc3ccccc23)cc1 | 0.779
28 | CN(Cc1ccccc1)C1CCCN(c2cc(NC(=O)c3ccc(F)cc3)ccn2)C1 (stereo unspecified) | 0.988
29 | CC(=O)Nc1cccc(C(=O)Nc2ccc(-c3cccc(-c4nc5cccc(C)c5[nH]4)c3)cc2)c1 | 0.789
30 | Cc1cccc(OC2CCN(c3ncc(C(=O)NCCCN4CCCC4=O)cc3Cl)CC2)c1 | 0.183
31 | CC(C)(CNCc1cc(Cl)cc(Cl)c1)c1nc(-c2ccnc(N)n2)c(-c2ccc(Cl)c(O)c2)[nH]1 | 1.01
32 | Cc1nc2nc(N)nc(N)c2c(C)c1Cc1ccc(C#N)cc1 | 0.542
33 | O=c1cc(NCCCNCc2cc3ccc(Br)cc3s2)[nH]c2ccccc12 | 0.99
34 | Nc1ccc2[nH]cc(C3CCN(CC4CCC(NC(=O)/C=C/c5ccccc5Cl)CC4)CC3)c2n1 (stereo unspecified) | 0.688
35 | COc1ccc(OC)c(C(O)C(C)NCc2cc(Cl)ccc2O)c1 (stereo unspecified) | 0.382
36 | CCNc1cc(C)nc(Nc2ccc(NC(=O)c3ccccc3Cl)cc2)n1 | 1.01
37 | CN1CCC(C(=O)Nc2cccc(-c3ccc(-c4nc5ccccc5[nH]4)cc3)c2)CC1 | 1.09
38 | Cc1c(-c2cccc(CNCCc3ccc(Cl)cc3)c2)cnc(N)c1C | 1.04
39 | c1ccc2c(CNCCCN3CCN(CCCNCc4c5ccccc5cc5ccccc45)CC3)c3ccccc3cc2c1 | 0.182
40 | COc1cc(C)nc2ccc(NC(=O)Nc3cccc4ccccc34)cc12 | 0.878
41 | COc1ccc(NC(=O)c2ccc(OCCCCCCCOc3ccc(C(=O)Nc4ccc(OC)c(N5CCN(C)CC5)c4)cc3)cc2)cc1N1CCN(C)CC1 | 0.598
42 | Nc1cc2c(C3CCN(CC4CCN(C(=O)/C=C/c5ccc(Cl)c(Cl)c5)CC4)CC3)c[nH]c2cn1 | 0.975
43 | Oc1cccc(Nc2ccnc3cc(-c4ccccn4)ccc23)c1 | 0.744
44 | Nc1nonc1-c1nc2c(-c3cccc(Cl)c3)nccc2n1CCCNC(=O)Cc1ccc(Cl)cc1 | 0.268
45 | Cc1noc(C)c1-c1cccc(CNCc2cccc(-c3csc(-c4nc5ccccc5[nH]4)c3)c2)c1 | 0.263
46 | O=C(Nc1ccc(Cn2ncc(N3CCCNCC3)c(Cl)c2=O)cc1)Nc1ccc(OCc2ccccc2)cc1 | 0.822
47 | O=c1cc(NCCCNCc2cc(F)cc(C(F)(F)F)c2)[nH]c2ccccc12 | 1.2
48 | CC(Nc1ncc(-c2ccsc2)c(-c2nccs2)n1)c1ccc2c(c1)OCCO2 (stereo unspecified) | 0.175

Row | SMILES | XC50 [µM]
49 | CC(=O)Nc1ccc(C(=O)Nc2cccc(-c3cccc(-c4nc5ccccc5[nH]4)c3)c2)cn1 | 0.204
50 | Clc1ccc(CNc2ccnc(NCc3cccnc3N3CCCC3)n2)c(Cl)c1 | 1.17
51 | O=C(NOCCCCOc1ccc(Cl)c(Cl)c1)c1ccccc1 | 0.183
52 | CCc1ccc(CN2CCC(CNC(=O)c3cc(-c4cccc(F)c4)cs3)C2)cc1 (stereo unspecified) | 1.36
53 | CN1CCN(c2ccc(-c3cc(-c4cc(F)c(F)c(F)c4)cnc3N)cc2)CC1 | 1.01
54 | COc1ccc(NC(=O)/C=C/c2ccccc2Cl)cc1OCCN1CCC(O)(c2ccc(Cl)c(C(F)(F)F)c2)CC1 | 0.637
55 | CCCOC(=O)c1ccc(OCCCON2C(=N)N=C(N)NC2(C)C)cc1 | 0.0032
56 | CN(CCCCCNC(=O)/C=C/c1ccc(Cl)c(Cl)c1)CCCCc1c[nH]c2ccccc12 | 1.08
57 | O=C(Nc1ccccc1)Nc1cccc(-c2nn3c(OCCN4CCCC4)cccc3c2-c2ccncc2)c1 | 0.404
58 | CN(CCN1CCC(c2c[nH]c3ccccc23)CC1)c1ccc(-c2nc3cc(Cl)c(Cl)cc3[nH]2)cc1 | 0.119
59 | O=C(NC1CCN(Cc2ccccc2)CC1)c1ccc(-c2nc3cc(Cl)c(F)cc3[nH]2)s1 | 0.306
60 | CCOC(=O)c1ccc(NC(=O)N(Cc2ccc(-c3ccc(CN4CCNCC4)cc3)cc2)Cc2cccnc2)cc1 | 0.926
61 | FC(F)(F)c1ccc2[nH]c(-c3cccc(-c4ccc(CNCCc5ccncc5)cc4)c3)nc2c1 | 0.0989
62 | Cc1cc(=NN=Cc2ccc(Cl)cc2)c2cccc(C)c2[nH]1 | 0.723
63 | CCOc1ccc(-c2nonc2NC(=O)c2cccc(Cl)c2)cc1OCC | 0.147
64 | COc1ccc(CNC2Cc3ccccc3C2)cc1-c1ccc(OC)c(S(=O)(=O)NCCN2CCCC2)c1 | 0.773
65 | Cc1cc(N)nc2ccc(-c3ccc(CCN)cc3)cc12 | 0.621
66 | COC(=O)c1cc2cccc(NC[C@@H](C)NC[C@H](O)c3cccc(Cl)c3)c2[nH]1 | 0.631
67 | CC(C)Cc1c(O)nc(SCCN2CCOCC2)[nH]c1=O | 1.26
68 | Cc1cc(N[C@@H](Cc2ccccc2)C(=O)Nc2ccccc2)nc(NCCN2CCCC2)n1 | 1.81
69 | N#Cc1ccc(-c2ccc(C(=O)NC3CCN(CCN4CCC(c5cn(CCO)c6ccccc56)CC4)CC3)cc2)cc1 | 0.758
70 | COc1ccc2nccc(N3CCC(CCNCc4ccc5c(n4)NC(=O)CS5)CC3)c2n1 | 0.227
71 | Cc1nc(-c2nc(N3CCOCC3)ncc2-c2ccsc2)sc1C | 0.315
72 | CCN(CC)CCCC(C)Nc1c2cc(OC)ccc2nc2cc(Cl)c([N+](=O)[O-])cc12 (stereo unspecified) | 0.787

Row | SMILES | XC50 [µM]
73 | O=C(Nc1ccc(-c2ccccc2)cc1)Nc1cccc(Cn2ncc(N3CCCNCC3)c(Cl)c2=O)c1 | 0.225
74 | COc1ccc2nc(C)cc(Nc3ccc(N4CCN(C)CC4)cc3)c2c1 | 0.788
75 | O=C(Cc1c(-c2ccccc2)[nH]c2ccccc12)NC1CCC(CN2CCC(c3c[nH]c4ccccc34)CC2)CC1 (stereo unspecified) | 0.476
76 | CC(C)(C)c1ccc(-c2nnc(N)nc2N)cc1 | 0.862
77 | COc1ccc(Br)cc1/C=C/C(=O)Nc1ccc2c(c1)CCCN(C)C2 | 1.56
78 | CCNc1cc(C(=O)N[C@@H](Cc2ccccc2)[C@H](O)CN[C@@H](C)c2cccc(OC)c2)cc(N2CCCC2=O)c1 | 0.769
79 | Cc1cc(=O)c(-c2ccc(Oc3cccc(OC(F)(F)F)c3)cc2)c(C)[nH]1 | 0.202
80 | Cn1c(NC(=O)C2CCCN(C(=O)c3ccc(O)c(-c4ccc(Cl)c(Cl)c4)c3)C2)nc2ccccc21 (stereo unspecified) | 0.751
81 | CCN(CCC1(c2ccc(Cl)c(Cl)c2)CN(C(=O)c2cc(OC)c(OC)c(OC)c2)CCO1)C1CC2c3ccccc3CC21 (stereo unspecified) | 0.426
82 | CN(C)CCNCc1ccc(-c2cccc(-c3nc4ccccc4[nH]3)c2)cc1 | 0.717
83 | Cc1cccc2nc(-c3cccc(-c4cccc(NC(=O)c5cccnc5Cl)c4)c3)[nH]c12 | 0.707
84 | O=c1cc(NCCCNCc2cc(Cl)cc(Cl)c2OCc2ccccc2)[nH]c2ccccc12 | 1.03
85 | COc1ccc(CNCc2ccc(-c3ccc(-c4nc5ccccc5[nH]4)cc3)cc2)cc1 | 0.241
86 | Cc1ccc(F)cc1S(=O)(=O)Nc1cccc(CCN2CCC(N3CCCCC3)CC2)c1 | 1.12
87 | COc1cc(N)cc2sc(N)nc12 | 0.251
88 | CC(=O)Nc1cccc(Nc2nccc(-c3c(-c4cccc(NC(=O)c5c(F)cccc5F)c4)nn4ncccc34)n2)c1 | 0.184
89 | O=C(Nc1cc(=O)[nH]c2nc(-c3ccccc3)nn12)C1CCCCC1 | 0.416
90 | CC(C)C(C(=O)n1cc2c(ccc3nc(N)nc(N)c32)n1)C(C)C | 0.79
91 | O=S(=O)(c1cccc(Cl)c1F)N(CCC(O)(C(F)(F)F)C(F)(F)F)Cc1cccc(O)c1 | 0.918
92 | O=c1cc(NCC2(CNCc3cn(Cc4ccccc4)c4ccccc34)CCCCC2)[nH]c2ccccc12 | 0.684
93 | COc1ccccc1NC(=O)Nc1cccc(-c2cccc(-c3nc4cccc(C)c4[nH]3)c2)c1 | 0.0957
94 | Oc1cc(-c2nc(-c3ccccc3)[nH]c2-c2ccncc2)ccc1Cl | 0.814
95 | O=C(Nc1ccc(-c2cccc(-c3nc4ccccc4[nH]3)c2)cc1)c1cnn2cccnc12 | 0.597
96 | COC(=O)c1cccc(NC(=O)NC2CCN(c3ccnc(Nc4ccc(OC)cc4)n3)C2)c1 (stereo unspecified) | 0.472
